Reference: paper PMC12443555, “Structural modifications to pregnane neurosteroids alter inhibition of LPS/Lipid A binding at the MD-2 activation site within the TLR4 signaling complex” (Frontiers in Immunology, 2025)

Target: T1, Myeloid Differentiation factor 2 (MD-2) (Homo sapiens, UniProt Q9Y6Y9)
T1 construct: gene LY96; Recombinant human MD-2 (R&D Systems 1787-MD-050/CF)
T1 sequence (Q9Y6Y9 19-160): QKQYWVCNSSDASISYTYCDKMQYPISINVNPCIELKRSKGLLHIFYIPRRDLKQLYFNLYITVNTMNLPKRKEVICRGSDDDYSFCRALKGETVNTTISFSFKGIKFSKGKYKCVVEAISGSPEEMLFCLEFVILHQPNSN
Assay: SPR competition against Lipid A ([…]) on immobilized MD-2
Format: binding
Details: read-out: Inhibition Constant (Ki)

SMILES	Ki [nM]
C[C@@]1(O)CC[C@H]2[C@H](CC[C@@H]3[C@@H]2CC[C@]2(C)[C@@H](C(=O)Cn4nccn4)CC[C@@H]32)C1 [SGE 516]	61.3
C[C@]12CC[C@@H](O)C[C@@H]1CC[C@@H]1[C@@H]2CC[C@]2(C)[C@@H](C(=O)CO)CC[C@@H]12 [3α,5α-THDOC]	57.6
CC(=O)[C@H]1CC[C@H]2[C@@H]3CCC4=CC(=O)CC[C@]4(C)[C@H]3CC[C@]12C [progesterone]	49.4
